What was measured:
Type in all cases: functional, cell-based
NCI-H250 = test: SANGER: Inhibition of human NCI-H250 cell growth in a cell viability assay.
NCI-H378 = test: SANGER: Inhibition of human NCI-H378 cell growth in a cell viability assay.
TC-YIK = test: SANGER: Inhibition of human TC-YIK cell growth in a cell viability assay.
Calu-1 = test: SANGER: Inhibition of human Calu-1 cell growth in a cell viability assay.
MFE-296 = test: SANGER: Inhibition of human MFE-296 cell growth in a cell viability assay.
COLO 205 = test: cells; conditions: Homo sapiens
Description: SANGER: Inhibition of human COLO-205 cell growth in a cell viability assay.

NCI-H1975 = test: cells; conditions: Homo sapiens
Description: SANGER: Inhibition of human NCI-H1975 cell growth in a cell viability assay.

Caov-4 = test: cells; conditions: Homo sapiens
Description: SANGER: Inhibition of human Caov-4 cell growth in a cell viability assay.

SK-MEL-5 = test: SANGER: Inhibition of human SK-MEL-5 cell growth in a cell viability assay.
SK-MG-1 = test: SANGER: Inhibition of human SK-MG-1 cell growth in a cell viability assay.
CRO-AP2 = test: SANGER: Inhibition of human CRO-AP2 cell growth in a cell viability assay.
CP67-MEL = test: SANGER: Inhibition of human CP67-MEL cell growth in a cell viability assay.
KP-N-RT-BM-1 = test: SANGER: Inhibition of human KP-N-RT-BM-1 cell growth in a cell viability assay.

Row | Structure (SMILES) | IC50 (Calu-1) [µM] | IC50 (MFE-296) [µM] | IC50 (COLO 205) [µM] | other results
1 | C=C1C(=O)O[C@@H]2C3O[C@]3(C)CC/C=C(\C)CC[C@@H]12 (some centres not stated) |  |  |  | IC50 (NCI-H250): > 5 µM; IC50 (NCI-H378): > 5 µM; IC50 (TC-YIK): > 5 µM
2 | COC(=O)CNC(=O)C(=O)OC | 896 | 318 | > 4000 | 
3 | CN(C)C/C=C/C(=O)Nc1cc2c(Nc3ccc(F)c(Cl)c3)ncnc2cc1O[C@H]1CCOC1 [AFATINIB] |  |  |  | IC50 (NCI-H1975): > 0.5 µM
4 | Cc1cc([C@@H](C)Nc2ccccc2C(=O)O)c2nc(N3CCOCC3)cc(=O)n2c1 [AZD-6482] | > 5.12 | 1.57 | > 5.12 | IC50 (Caov-4): > 5.12 µM; IC50 (NCI-H1975): > 5.12 µM; IC50 (SK-MEL-5): > 5.12 µM; IC50 (SK-MG-1): > 5.12 µM
5 | O=C(NOCC1CC1)c1ccc(F)c(F)c1Nc1ccc(I)cc1Cl [CI-1040] |  |  |  | IC50 (NCI-H1975): 6.47 µM
6 | Nc1ccn([C@@H]2O[C@H](CO)[C@@H](O)[C@@H]2O)c(=O)n1 [CYTARABINE] |  |  |  | IC50 (NCI-H1975): > 2 µM
7 | COc1cc([C@@H]2c3cc4c(cc3[C@@H](O[C@@H]3O[C@@H]5CO[C@@H](C)O[C@H]5[C@H](O)[C@H]3O)[C@H]3COC(=O)[C@H]23)OCO4)cc(OC)c1O [ETOPOSIDE] | 7.89 | 0.763 | 0.265 | IC50 (Caov-4): > 16 µM
8 | Cc1cnc(-c2cnc(NCCNc3ccc(C#N)cn3)nc2-c2ccc(Cl)cc2Cl)[nH]1 [LADUVIGLUSIB] | > 2.56 | > 2.56 | > 2.56 | IC50 (Caov-4): > 2.56 µM
9 | C[C@]1(O)C[C@@H](c2nc(-c3ccc4ccc(-c5ccccc5)nc4c3)c3c(N)nccn32)C1 [LINSITINIB] | > 2.56 | > 2.56 | 0.105 | 
10 | C=CCc1cccc(/C=N/NC(=O)CN2CCN(Cc3ccccc3)CC2)c1O [PAC-1] | > 2.56 | > 2.56 | > 2.56 | 
11 | Cc1ccc(Nc2nccc(N(C)c3ccc4c(C)n(C)nc4c3)n2)cc1S(N)(=O)=O [PAZOPANIB] | > 8 | 0.59 | > 8 | 
12 | CN(c1ncccc1CNc1nc(Nc2ccc3c(c2)CC(=O)N3)ncc1C(F)(F)F)S(C)(=O)=O [PF-00562271] | > 2.56 | 2.48 | 0.487 | IC50 (Caov-4): > 2.56 µM
13 | CCc1nc(N)nc(N)c1-c1ccc(Cl)cc1 [PYRIMETHAMINE] |  |  |  | IC50 (CRO-AP2): 18.7 µM
14 | CN1CCN(CCOc2cc(OC3CCOCC3)c3c(Nc4c(Cl)ccc5c4OCO5)ncnc3c2)CC1 [SARACATINIB] |  |  |  | IC50 (CP67-MEL): > 2 µM; IC50 (CRO-AP2): > 2 µM; IC50 (KP-N-RT-BM-1): > 2 µM
15 | Cn1cc(C2=C(c3ccc(Cl)cc3Cl)C(=O)NC2=O)c2ccccc21 [SB-216763] |  |  |  | IC50 (NCI-H1975): > 10 µM
16 | CO[C@H]1C[C@@H]2CC[C@@H](C)[C@@](O)(O2)C(=O)C(=O)N2CCCC[C@H]2C(=O)O[C@H]([C@H](C)C[C@@H]2CC[C@@H](O)[C@H](OC)C2)CC(=O)[C@H](C)/C=C(\C)[C@@H](O)[C@@H](OC)C(=O)[C@H](C)C[C@H](C)/C=C/C=C/C=C/1C [SIROLIMUS] |  |  |  | IC50 (CP67-MEL): > 0.1 µM; IC50 (KP-N-RT-BM-1): > 0.1 µM; IC50 (TC-YIK): > 0.1 µM
17 | CNC(=O)c1cc(Oc2ccc(NC(=O)Nc3ccc(Cl)c(C(F)(F)F)c3)cc2)ccn1 [SORAFENIB] |  |  |  | IC50 (CRO-AP2): > 4 µM
18 | Cn1cncc1[C@@](N)(c1ccc(Cl)cc1)c1ccc2c(c1)c(-c1cccc(Cl)c1)cc(=O)n2C [TIPIFARNIB] | 0.181 | 1.45 | 4.18 | 
19 | CCC(=O)N1CCN(c2ccc(-n3c(=O)ccc4cnc5ccc(-c6cnc7ccccc7c6)cc5c43)cc2C(F)(F)F)CC1 [TORIN1] |  |  |  | IC50 (CP67-MEL): 0.0376 µM; IC50 (KP-N-RT-BM-1): > 1.2 µM
20 | Cc1cc(Nc2cc(N3CCN(C)CC3)nc(Sc3ccc(NC(=O)C4CC4)cc3)n2)n[nH]1 [TOZASERTIB] |  |  |  | IC50 (CP67-MEL): > 2 µM; IC50 (KP-N-RT-BM-1): > 2 µM
21 | CCC1=C[C@@H]2CN(C1)Cc1c([nH]c3ccccc13)[C@@](C(=O)OC)(c1cc3c(cc1OC)N(C)[C@H]1[C@@](O)(C(=O)OC)[C@H](OC(C)=O)[C@]4(CC)C=CCN5CC[C@]31[C@@H]54)C2 [VINORELBINE] | > 0.064 | 0.00599 | 0.00137 | IC50 (Caov-4): > 0.064 µM

Source: ChEMBL document CHEMBL1201861, “Genomics of Drug Sensitity in Cancer screening data, Wellcome Trust Sanger Institute”
